pIC50: −log10 of the molar value. Converted amounts (≈) assume the structure as drawn. The source made the active and inactive calls. No cut-off for these calls is given here. Starred links: 1 amine or outer side, 2 acyl side, 3 side chain; linkers in the order of their positions; H or OH if unused. Residues, ends and D or L forms follow the SMILES beside them. *: point of attachment. X1 = CC(=O)O[C@H]1C(=O)[C@@]2(C)[C@H]([C@H](OC(=O)c3ccccc3)[C@]3(O)C[C@H](OC(=O)[C@H](OC(=O)CCCCCN4C(=O)CC(*)C4=O)[C@@H](NC(=O)c4ccccc4)c4ccccc4)C(C)=C1C3(C)C)[C@]1(OC(C)=O)CO[C@@H]1C[C@@H]2O; Pteroyl = Nc1nc2ncc(CNc3ccc(C(=O)*)cc3)nc2c(=O)[nH]1; γGlu = O=C(O)[C@H](CCC(=O)[*:2])N[*:1]
Experiments:
HUVEC = assay: Cytotoxicity against HUVEC incubated for 48 hrs by MTT assay; assay type: cell-based; details: Homo sapiens
MCF7/PTX [1] = assay: Cytotoxicity against human MCF7/PTX cells at 1 to 6 uM incubated for 48 hrs by MTT assay; assay type: functional, cell-based
SK-OV-3 = assay: Cytotoxicity against human SKOV3 cells incubated for 48 hrs by MTT assay; assay type: functional, cell-based; details: SK-OV-3, 48 h
[2] = Drug uptake in human MCF7/PTX cells at 1 to 6 uM incubated for 2 hrs using FITC-labelled compound by flow cytometric analysis; assay type: ADME, cell-based
A2780 = assay: Cytotoxicity against human A2780 cells incubated for 48 hrs by MTT assay; assay type: functional, cell-based; details: A2780, 48 h
MCF7/PTX [3] = assay: Cytotoxicity against human MCF7/PTX cells incubated for 48 hrs by MTT assay; assay type: functional, cell-based
Erythrocyte = assay: Hemolytic activity in Wistar rat erythrocytes incubated for 1 hr; assay type: ADME, cell-based
MCF7/PTX [4] = assay: Induction of membrane disruption in human MCF7/PTX cells at 3 uM incubated for 12 hrs by AO/EB double staining based fluorescence microscopic method; assay type: functional, cell-based
MCF7 [5] = assay: Cytotoxicity against human MCF7 cells incubated for 48 hrs by MTT assay; assay type: functional, cell-based; details: MCF7, 48 h
MCF7/PTX [6] = assay: Induction of apoptosis in human MCF7/PTX cells assessed as late apoptotic cells at 3 uM incubated for 12 hrs by Annexin V-FITC/propidium iodide staining based flow cytometric analysis (reference value: 0.9%); assay type: functional
MCF7/PTX [7] = assay: Induction of apoptosis in human MCF7/PTX cells assessed as live cells at 3 uM incubated for 12 hrs by Annexin V-FITC/propidium iodide staining based flow cytometric analysis (reference value: 95.9%); assay type: functional
MCF7/PTX [8] = assay: Induction of membrane disruption in human MCF7/PTX cells incubated for 12 hrs by LDH release assay; assay type: functional, cell-based
MCF7/PTX [9] = assay: Induction of apoptosis in human MCF7/PTX cells assessed as early apoptotic cells at 3 uM incubated for 12 hrs by Annexin V-FITC/propidium iodide staining based flow cytometric analysis (reference value: 1.1%); assay type: functional
K562 = assay: Cytotoxicity against human K562 cells incubated for 48 hrs by MTT assay; assay type: functional, cell-based; details: K562, 48 h
MCF7/PTX [10] = assay: Induction of apoptosis in human MCF7/PTX cells assessed as necrotic cells at 3 uM incubated for 12 hrs by Annexin V-FITC/propidium iodide staining based flow cytometric analysis (reference value: 2.1%); assay type: functional
MCF7/PTX [11] = assay: Induction of apoptosis in human MCF7/PTX cells assessed increase in cytochrome-c expression in cytoplasm at 3 uM incubated for 2 hrs by Western blot analysis; assay type: functional, cell-based
MCF7/PTX [12] = assay: Induction of mitochondrial membrane potential loss in human MCF7/PTX cells at 3 uM incubated for 12 hrs by JC1 staining-based confocal microscopic method; assay type: functional, cell-based
MCF7/PTX [13] = assay: Induction of apoptosis in human MCF7/PTX cells assessed as increase in cleaved caspase 3 level in cytoplasm at 3 uM incubated for 2 hrs by Western blot analysis; assay type: functional, cell-based
MCF7/PTX [14] = assay: Induction of membrane disruption in human MCF7/PTX cells incubated for 12 hrs by AO/EB double-staining based fluorescence microscopic method; assay type: functional, cell-based
MCF7 [15] = assay: Cytotoxicity against human MCF7 cells at 1 to 6 uM incubated for 48 hrs by MTT assay; assay type: functional, cell-based
[16] = Antitumor activity against […] cells xenografted in ICR mouse assessed as reduction in tumor volume at 12 umol/kg administered once every 2 days via peritumoral route for 2 weeks measured for 22 days by caliper analysis relative to control; assay type: functional
[17] = Aqueous solubility of the compound; assay type: physicochemical; details: buffer
Tubulin (Sus scrofa) = Tubulin (Sus scrofa) (UniProt P02554+P02550); assay: Induction of porcine brain tubulin polymerization at 3 uM by fluorescence analysis
MCF7/PTX [18] = assay: Induction of apoptosis in human MCF7/PTX cells assessed as necrotic cells at 3 uM incubated for 12 hrs by Annexin V-FITC/propidium iodide staining based flow cytometric analysis in presence of paclitaxel (reference value: 2.1%); assay type: functional
MCF7/PTX [19] = assay: Induction of apoptosis in human MCF7/PTX cells assessed as live cells at 3 uM incubated for 12 hrs by Annexin V-FITC/propidium iodide staining based flow cytometric analysis in presence of paclitaxel (reference value: 95.9%); assay type: functional
[20] = Half life in Wistar rat plasma at 500 ug/ml measured over 24 hrs at 37 degC by UPLC/MS analysis; assay type: ADME, cell-free
MCF7/PTX [21] = assay: Induction of apoptosis in human MCF7/PTX cells assessed as late apoptotic cells at 3 uM incubated for 12 hrs by Annexin V-FITC/propidium iodide staining based flow cytometric analysis in presence of paclitaxel (reference value: 0.9%); assay type: functional
MCF7/PTX [22] = assay: Induction of apoptosis in human MCF7/PTX cells assessed as early apoptotic cells at 3 uM incubated for 12 hrs by Annexin V-FITC/propidium iodide staining based flow cytometric analysis in presence of paclitaxel (reference value: 1.1%); assay type: functional

Tubulin (Sus scrofa), sequence (P02550 whole entry, looked up): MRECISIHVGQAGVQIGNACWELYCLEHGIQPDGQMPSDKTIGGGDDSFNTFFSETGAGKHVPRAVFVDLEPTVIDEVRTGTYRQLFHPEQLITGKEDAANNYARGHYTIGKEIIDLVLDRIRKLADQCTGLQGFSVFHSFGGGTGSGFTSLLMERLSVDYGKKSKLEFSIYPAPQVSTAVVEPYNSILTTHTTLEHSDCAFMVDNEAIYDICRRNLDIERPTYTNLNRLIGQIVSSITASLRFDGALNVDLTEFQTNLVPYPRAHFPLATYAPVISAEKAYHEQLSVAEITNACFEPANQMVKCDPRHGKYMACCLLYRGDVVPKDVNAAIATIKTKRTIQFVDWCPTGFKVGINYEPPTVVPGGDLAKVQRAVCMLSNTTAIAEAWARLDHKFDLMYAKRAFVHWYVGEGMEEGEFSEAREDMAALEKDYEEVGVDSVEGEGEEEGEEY
Tubulin (Sus scrofa), sequence (P02554 whole entry, looked up): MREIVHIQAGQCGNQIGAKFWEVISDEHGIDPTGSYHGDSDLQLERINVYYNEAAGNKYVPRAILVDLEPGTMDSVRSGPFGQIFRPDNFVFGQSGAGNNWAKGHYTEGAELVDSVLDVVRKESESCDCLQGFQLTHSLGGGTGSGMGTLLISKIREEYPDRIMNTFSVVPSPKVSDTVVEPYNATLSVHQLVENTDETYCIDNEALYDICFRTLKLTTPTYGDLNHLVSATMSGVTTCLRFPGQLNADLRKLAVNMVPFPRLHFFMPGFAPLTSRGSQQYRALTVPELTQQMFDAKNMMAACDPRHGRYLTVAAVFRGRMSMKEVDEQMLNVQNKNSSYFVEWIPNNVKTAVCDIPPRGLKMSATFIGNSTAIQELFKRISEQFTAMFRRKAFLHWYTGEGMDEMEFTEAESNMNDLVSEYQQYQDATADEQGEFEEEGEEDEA

Drug uptake [2]	Compound	pIC50 (HUVEC)	Activity (MCF7/PTX [1])	pIC50 (SK-OV-3)	pIC50 (A2780)	pIC50 (MCF7/PTX [3])	Activity (Erythrocyte)	Activity (MCF7/PTX [4])	pIC50 (MCF7 [5])	Activity (MCF7/PTX [6])	Activity (MCF7/PTX [7])	Activity (MCF7/PTX [8])	Activity (MCF7/PTX [9])	pIC50 (K562)	Activity (MCF7/PTX [10])	further results
Active	CC(=O)O[C@H]1C(=O)[C@@]2(C)[C@H]([C@H](OC(=O)c3ccccc3)[C@]3(O)C[C@H](OC(=O)[C@H](OC(=O)CCCCCN4C(=O)CC(SC[C@H](NC(=O)[C@H](CCCCN)NC(=O)[C@H](CCCCN)NC(=O)[C@H](CC(C)C)NC(=O)[C@H](CCCCN)NC(=O)[C@H](CCCNC(=N)N)NC(=O)[C@H](Cc5ccccc5)NC(=O)[C@H](Cc5ccccc5)NC(=O)[C@H](CCCCN)NC(=O)[C@H](CCCCN)NC(=O)[C@H](Cc5ccccc5)NC(=O)[C@H](CCCNC(=N)N)NC(=O)[C@H](CCCCN)NC(=O)[C@@H](NC(=O)[C@@H](N)CC(C)C)C(C)C)C(=O)N[C@H](C(=O)N[C@@H](CC(C)C)C(=O)N[C@@H](CC(C)C)C(N)=O)C(C)C)C4=O)[C@@H](NC(=O)c4ccccc4)c4ccccc4)C(C)=C1C3(C)C)[C@]1(OC(C)=O)CO[C@@H]1C[C@@H]2O (stereo not given in full) (H-LVKRFKKFFRKLKKC(X1)VLL-NH2)	4.50	inactive	5.14	5.57	5.21	Toxic	Active	5.67	20.2%	74.4%	Dose-dependent effect	2.2%	5.23	3.2%	
	CC(=O)O[C@H]1C(=O)[C@@]2(C)[C@H]([C@H](OC(=O)c3ccccc3)[C@]3(O)C[C@H](OC(=O)[C@H](OC(=O)CCCCCN4C(=O)CC(SC[C@H](NC(=O)[C@H](CCCNC(=N)N)NC(=O)[C@H](CCCNC(=N)N)NC(=O)[C@H](CC(C)C)NC(=O)[C@H](CCCNC(=N)N)NC(=O)[C@H](CCCNC(=N)N)NC(=O)[C@H](Cc5ccccc5)NC(=O)[C@H](Cc5ccccc5)NC(=O)[C@H](CCCNC(=N)N)NC(=O)[C@H](CCCNC(=N)N)NC(=O)[C@H](Cc5ccccc5)NC(=O)[C@H](CCCNC(=N)N)NC(=O)[C@H](CCCNC(=N)N)NC(=O)[C@@H](NC(=O)[C@@H](N)CC(C)C)C(C)C)C(=O)N[C@H](C(=O)N[C@@H](CC(C)C)C(=O)N[C@@H](CC(C)C)C(N)=O)C(C)C)C4=O)[C@@H](NC(=O)c4ccccc4)c4ccccc4)C(C)=C1C3(C)C)[C@]1(OC(C)=O)CO[C@@H]1C[C@@H]2O (stereo not given in full) (H-LVRRFRRFFRRLRRC(X1)VLL-NH2)	4.43		5.18	5.55	5.26	Toxic	Active	5.70	30.2%	64.7%	Dose-dependent effect	1.7%	5.42	3.6%	
Active	CC(=O)O[C@H]1C(=O)[C@@]2(C)[C@H]([C@H](OC(=O)c3ccccc3)[C@]3(O)C[C@H](OC(=O)[C@H](OC(=O)CCCCCN4C(=O)CC(SC[C@H](NC(=O)[C@H](CCCCN)NC(=O)[C@H](CCCCN)NC(=O)[C@H](CC(C)C)NC(=O)[C@H](CCCCN)NC(=O)[C@H](CCCNC(=N)N)NC(=O)[C@H](Cc5ccccc5)NC(=O)[C@H](Cc5ccccc5)NC(=O)[C@H](CCCCN)NC(=O)[C@H](CCCCN)NC(=O)[C@H](Cc5ccccc5)NC(=O)[C@H](CCCNC(=N)N)NC(=O)[C@H](CCCCN)NC(=O)[C@@H](NC(=O)[C@H](CC(C)C)NC(=O)CC[C@H](NC(=O)c5ccc(NCc6cnc7nc(N)[nH]c(=O)c7n6)cc5)C(=O)O)C(C)C)C(=O)N[C@H](C(=O)N[C@@H](CC(C)C)C(=O)N[C@@H](CC(C)C)C(N)=O)C(C)C)C4=O)[C@@H](NC(=O)c4ccccc4)c4ccccc4)C(C)=C1C3(C)C)[C@]1(OC(C)=O)CO[C@@H]1C[C@@H]2O (stereo not given in full) ({Pteroyl-γGlu}-LVKRFKKFFRKLKKC(X1)VLL-NH2)	4.31	Active	5.23	5.71	5.34	Toxic	Active	5.75	34.6%	56.3%	Dose-dependent effect	1.1%	5.27	8%	Activity (MCF7/PTX [11]): Active; Activity (MCF7/PTX [12]): Active; Activity (MCF7/PTX [13]): Active; Activity (MCF7/PTX [14]): Dose-dependent effect; Activity (MCF7 [15]): Active
	CC(=O)O[C@H]1C(=O)[C@@]2(C)[C@H]([C@H](OC(=O)c3ccccc3)[C@]3(O)C[C@H](OC(=O)[C@H](O)[C@@H](NC(=O)c4ccccc4)c4ccccc4)C(C)=C1C3(C)C)[C@]1(OC(C)=O)CO[C@@H]1C[C@@H]2O [PACLITAXEL]	5.03		5.20	5.55	4.26				1.5%	93.2%		1.3%	5.24	3.9%	inhibition in vivo at 12 µmol/kg [16]: 49%; solubility [17]: 4 µg/mL (≈ 4.68 µM); Activity (Tubulin (Sus scrofa)): Active
	H-LVKRFKKFFRKLKKCVLL-NH2	4.40		4.83	4.87	4.82			4.91	2.6%	91.1%		1.6%	4.86	4.6%	
	H-LVRRFRRFFRRLRRCVLL-NH2	4.35		4.87	4.94	4.77			5.06	9%	83.5%		1.7%	5.02	5.7%	Activity (MCF7/PTX [18]): 5.8%; Activity (MCF7/PTX [19]): 76.7%; half-life at 500 ug/ml [20]: 48 min; Activity (MCF7/PTX [21]): 15.9%; Activity (MCF7/PTX [22]): 1.7%

Source: ChEMBL document CHEMBL4346678, “Synthesis and anti-cancer evaluation of folic acid-peptide- paclitaxel conjugates for addressing drug resistance” (Eur J Med Chem, 2019)
